Counter-ions that a name gives are not always drawn.
Target: ROCK2 (Homo sapiens, UniProt O75116)
Assay: ROCK2 kinase inhibition assay (LABCHIP 3000 Reader, FITC peptide substrate);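 also: rho kinase reaction read by separating phosphorylated from unphosphorylated peptide on chip, with inhibition of kinase activity computed per concentration across a dose-response series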

ROCK2, sequence (O75116 whole entry, species assumed): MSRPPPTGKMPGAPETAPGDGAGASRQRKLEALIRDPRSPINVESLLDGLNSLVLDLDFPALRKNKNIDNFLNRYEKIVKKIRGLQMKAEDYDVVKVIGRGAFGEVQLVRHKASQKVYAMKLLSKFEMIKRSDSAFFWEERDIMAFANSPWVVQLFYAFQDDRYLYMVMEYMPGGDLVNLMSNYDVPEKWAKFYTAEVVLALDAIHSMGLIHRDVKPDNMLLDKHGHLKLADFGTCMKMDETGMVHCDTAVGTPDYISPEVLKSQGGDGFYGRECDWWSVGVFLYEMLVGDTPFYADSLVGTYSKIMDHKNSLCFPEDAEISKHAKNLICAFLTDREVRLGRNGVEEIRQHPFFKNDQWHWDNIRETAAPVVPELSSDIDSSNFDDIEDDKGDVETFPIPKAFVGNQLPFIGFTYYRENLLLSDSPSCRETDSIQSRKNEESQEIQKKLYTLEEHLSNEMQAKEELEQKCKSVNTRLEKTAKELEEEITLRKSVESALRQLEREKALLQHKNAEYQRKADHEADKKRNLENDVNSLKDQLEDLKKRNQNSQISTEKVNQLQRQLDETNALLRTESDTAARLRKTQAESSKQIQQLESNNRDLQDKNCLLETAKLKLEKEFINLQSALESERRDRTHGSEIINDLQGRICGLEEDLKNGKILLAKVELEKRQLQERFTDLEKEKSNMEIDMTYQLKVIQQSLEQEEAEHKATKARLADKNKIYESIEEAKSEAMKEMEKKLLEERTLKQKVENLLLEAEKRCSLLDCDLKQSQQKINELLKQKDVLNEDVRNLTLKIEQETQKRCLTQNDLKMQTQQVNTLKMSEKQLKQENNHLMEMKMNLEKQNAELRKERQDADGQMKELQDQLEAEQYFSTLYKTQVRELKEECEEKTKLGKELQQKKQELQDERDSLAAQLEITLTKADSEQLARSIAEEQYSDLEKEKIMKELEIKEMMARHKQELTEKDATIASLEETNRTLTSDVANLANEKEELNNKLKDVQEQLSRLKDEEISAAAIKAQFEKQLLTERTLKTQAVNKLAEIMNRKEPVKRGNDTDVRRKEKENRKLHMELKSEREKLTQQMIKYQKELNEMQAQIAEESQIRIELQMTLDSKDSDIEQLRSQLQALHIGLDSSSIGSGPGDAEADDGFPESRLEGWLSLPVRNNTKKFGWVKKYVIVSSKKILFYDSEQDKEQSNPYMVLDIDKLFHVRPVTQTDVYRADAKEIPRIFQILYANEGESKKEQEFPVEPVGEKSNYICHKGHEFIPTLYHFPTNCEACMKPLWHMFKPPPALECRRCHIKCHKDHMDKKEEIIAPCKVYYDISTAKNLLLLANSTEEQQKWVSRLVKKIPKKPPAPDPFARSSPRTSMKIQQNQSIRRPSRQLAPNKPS

| SMILES | IC50 [nM] |
| --- | --- |
| CC(C)(O)COc1ccc2c(C(=O)NC3CC4(C3)CC(Oc3cc(-c5cc(CO)cc(CO)c5)ccc3C(N)=O)C4)cnn2c1 (stereo not shown) [Example 258, N-(6-((4-carbamoyl-3′,5′-bis(hydroxymethyl)-[1,1′-biphenyl]-3-yl)oxy)spiro[3.3]heptan-2-yl)-6-(2-hydroxy-2-methylpropoxy)pyrazolo[1,5-a]pyridine-3-carboxamide] | < 5 |
| CC(C)(O)COc1ccc2c(C(=O)NC3CC4(C3)CC(Oc3cc(O)ccc3C(N)=O)C4)cnn2c1 (stereo not shown) [Example 259, N-(6-(2-carbamoyl-5-hydroxyphenoxy)spiro[3.3]heptan-2-yl)-6-(2-hydroxy-2-methylpropoxy)pyrazolo[1,5-a]pyridine-3-carboxamide] | 5 to 50 |
| CC(C)(O)COc1ccc2c(C(=O)NC3CC4(C3)CC(Oc3cc(N5CC(N)C5)ccc3C(N)=O)C4)cnn2c1 (stereo not shown) [Example 260, N-(6-(5-(3-aminoazetidin-1-yl)-2-carbamoylphenoxy)spiro[3.3]heptan-2-yl)-6-(2-hydroxy-2-methylpropoxy)pyrazolo[1,5-a]pyridine-3-carboxamide, TFA] | 5 to 50 |
| CC(C)(O)COc1ccc2c(C(=O)NC3CC4(C3)CC(Oc3cc(-c5cccc(CCN)c5)ccc3C(N)=O)C4)cnn2c1 (stereo not shown) [Example 261, N-(6-((3′-(2-aminoethyl)-4-carbamoyl-[1,1′-biphenyl]-3-yl)oxy)spiro[3.3]heptan-2-yl)-6-(2-hydroxy-2-methylpropoxy)pyrazolo[1,5-a]pyridine-3-carboxamide] | < 5 |
| CN(C)CCCc1ccc(C(N)=O)c(OC2CC3(CC(NC(=O)c4cnn5cc(OCC(C)(C)O)ccc45)C3)C2)c1 (stereo not shown) [Example 262, N-(6-(2-carbamoyl-5-(3-(dimethylamino)propyl)phenoxy)spiro[3.3]heptan-2-yl)-6-(2-hydroxy-2-methylpropoxy)pyrazolo[1,5-a]pyridine-3-carboxamide] | 5 to 50 |
| CN(C)CCCc1ccc(C(N)=O)c(OC2CC3(CC(NC(=O)c4cnn5c(C6CC6)c(OCC(C)(C)O)ccc45)C3)C2)c1 (stereo not shown) [Example 263, N-(6-(2-carbamoyl-5-(3-(dimethylamino)propyl)phenoxy)spiro[3.3]heptan-2-yl)-7-cyclopropyl-6-(2-hydroxy-2-methylpropoxy)pyrazolo[1,5-a]pyridine-3-carboxamide] | 5 to 50 |
| CC(C)(O)COc1ccc2c(C(=O)NC3CC4(C3)CC(Oc3cc(CCCN5CCOCC5)ccc3C(N)=O)C4)cnn2c1 (stereo not shown) [Example 264, N-(6-(2-carbamoyl-5-(3-morpholinopropyl)phenoxy)spiro[3.3]heptan-2-yl)-6-(2-hydroxy-2-methylpropoxy)pyrazolo[1,5-a]pyridine-3-carboxamide] | 50 to 250 |
| CC(C)(O)COc1ccc2c(C(=O)NC3CC4(C3)CC(Oc3cc(CCCN5CCOCC5)ccc3C(N)=O)C4)cnn2c1C1CC1 (stereo not shown) [Example 265, N-(6-(2-carbamoyl-5-(3-morpholinopropyl)phenoxy)spiro[3.3]heptan-2-yl)-7-cyclopropyl-6-(2-hydroxy-2-methylpropoxy)pyrazolo[1,5-a]pyridine-3-carboxamide] | 5 to 50 |
| CN1CCN(CCCc2ccc(C(N)=O)c(OC3CC4(CC(NC(=O)c5cnn6cc(OCC(C)(C)O)ccc56)C4)C3)c2)CC1 (stereo not shown) [Example 266, N-(6-(2-carbamoyl-5-(3-(4-methylpiperazin-1-yl)propyl)phenoxy)spiro[3.3]heptan-2-yl)-6-(2-hydroxy-2-methylpropoxy)pyrazolo[1,5-a]pyridine-3-carboxamide] | 50 to 250 |
| CN1CCN(CCCc2ccc(C(N)=O)c(OC3CC4(CC(NC(=O)c5cnn6c(C7CC7)c(OCC(C)(C)O)ccc56)C4)C3)c2)CC1 (stereo not shown) [Example 267, N-(6-(2-carbamoyl-5-(3-(4-methylpiperazin-1-yl)propyl)phenoxy)spiro[3.3]heptan-2-yl)-7-cyclopropyl-6-(2-hydroxy-2-methylpropoxy)pyrazolo[1,5-a]pyridine-3-carboxamide] | 5 to 50 |
| CC(C)(O)COc1ccc2c(C(=O)NC3CC4(C3)CC(Oc3c(F)cc(F)cc3C(N)=O)C4)cnn2c1 (stereo not shown) [Example 268, N-(6-(2-carbamoyl-4,6-difluorophenoxy)spiro[3.3]heptan-2-yl)-6-(2-hydroxy-2-methylpropoxy)pyrazolo[1,5-a]pyridine-3-carboxamide] | 250 to 2500 |
| CC(C)(O)COc1ccc2c(C(=O)NC3CC4(C3)CC(Oc3c(F)cc(F)cc3C(N)=O)C4)cnn2c1C1CC1 (stereo not shown) [Example 269, N-(6-(2-carbamoyl-4,6-difluorophenoxy)spiro[3.3]heptan-2-yl)-7-cyclopropyl-6-(2-hydroxy-2-methylpropoxy)pyrazolo[1,5-a]pyridine-3-carboxamide] | 50 to 250 |
| CC(C)(O)COc1ccc2c(C(=O)NC3CC4(C3)CC(Oc3ccc(F)cc3C(N)=O)C4)cnn2c1 (stereo not shown) [Example 270, N-(6-(2-carbamoyl-4-fluorophenoxy)spiro[3.3]heptan-2-yl)-6-(2-hydroxy-2-methylpropoxy)pyrazolo[1,5-a]pyridine-3-carboxamide] | 50 to 250 |
| CC(C)(O)COc1ccc2c(C(=O)NC3CC4(C3)CC(Oc3ccc(F)cc3C(N)=O)C4)cnn2c1C1CC1 (stereo not shown) [Example 271, N-(6-(2-carbamoyl-4-fluorophenoxy)spiro[3.3]heptan-2-yl)-7-cyclopropyl-6-(2-hydroxy-2-methylpropoxy)pyrazolo[1,5-a]pyridine-3-carboxamide] | 5 to 50 |
| CC(C)(O)COc1ccc2c(C(=O)NC3CC4(C3)CC(Oc3cc(Br)ccc3C(N)=O)C4)cnn2c1 (stereo not shown) [Example 272, N-(6-(5-bromo-2-carbamoylphenoxy)spiro[3.3]heptan-2-yl)-6-(2-hydroxy-2-methylpropoxy)pyrazolo[1,5-a]pyridine-3-carboxamide] | < 5 |
| CC(C)(O)COc1ccc2c(C(=O)NC3CC4(C3)CC(Oc3cc(C5CC5)ccc3C(N)=O)C4)cnn2c1 (stereo not shown) [Example 273, N-(6-(2-carbamoyl-5-cyclopropylphenoxy)spiro[3.3]heptan-2-yl)-6-(2-hydroxy-2-methylpropoxy)pyrazolo[1,5-a]pyridine-3-carboxamide] | 5 to 50 |
| CC(C)(O)COc1ccc2c(C(=O)NC3CC4(C3)CC(Oc3cc(C5CC5)ccc3C(N)=O)C4)cnn2c1C1CC1 (stereo not shown) [Example 274, N-(6-(2-carbamoyl-5-cyclopropylphenoxy)spiro[3.3]heptan-2-yl)-7-cyclopropyl-6-(2-hydroxy-2-methylpropoxy)pyrazolo[1,5-a]pyridine-3-carboxamide] | < 5 |
| Cn1cc(-c2ccc(C(N)=O)c(OC3CC4(CC(NC(=O)c5cnn6cc(OCC(C)(C)O)ccc56)C4)C3)c2)cn1 (stereo not shown) [Example 275, N-(6-(2-carbamoyl-5-(1-methyl-1H-pyrazol-4-yl)phenoxy)spiro[3.3]heptan-2-yl)-6-(2-hydroxy-2-methylpropoxy)pyrazolo[1,5-a]pyridine-3-carboxamide] | 5 to 50 |
| CC(C)(O)COc1ccc2c(C(=O)NC3CC4(C3)CC(Oc3cc(-c5cnn(C6CC6)c5)ccc3C(N)=O)C4)cnn2c1 (stereo not shown) [Example 277, N-(6-(2-carbamoyl-5-(1-cyclopropyl-1H-pyrazol-4-yl)phenoxy)spiro[3.3]heptan-2-yl)-6-(2-hydroxy-2-methylpropoxy)pyrazolo[1,5-a]pyridine-3-carboxamide] | 5 to 50 |

From patent publication US10829501B2 (BRISTOL-MYERS SQUIBB COMPANY, priority 2016, dated 2020)
